Test results reported in patent US20260092061A1, “COMPOUNDS FOR TARGETED PROTEIN DEGRADATION” (Amphista Therapeutics Limited, priority 2022, published 2026).

Key:
[1] = target: T1, BRD9 (Homo sapiens, UniProt Q9H8M2); assay: BRD9 degradation, HiBiT-BRD9 KI HEK293 (LgBiT) cells, NanoGlo Lytic Endpoint assay (Assay Protocol 1); format: cell-based; conditions: BRD9 degradation; for Dmax at 1 µM: 1 μM compound at 6 h of treatment, read-out: Assay 1 Dmax
T1 sequence (Q9H8M2 1-597): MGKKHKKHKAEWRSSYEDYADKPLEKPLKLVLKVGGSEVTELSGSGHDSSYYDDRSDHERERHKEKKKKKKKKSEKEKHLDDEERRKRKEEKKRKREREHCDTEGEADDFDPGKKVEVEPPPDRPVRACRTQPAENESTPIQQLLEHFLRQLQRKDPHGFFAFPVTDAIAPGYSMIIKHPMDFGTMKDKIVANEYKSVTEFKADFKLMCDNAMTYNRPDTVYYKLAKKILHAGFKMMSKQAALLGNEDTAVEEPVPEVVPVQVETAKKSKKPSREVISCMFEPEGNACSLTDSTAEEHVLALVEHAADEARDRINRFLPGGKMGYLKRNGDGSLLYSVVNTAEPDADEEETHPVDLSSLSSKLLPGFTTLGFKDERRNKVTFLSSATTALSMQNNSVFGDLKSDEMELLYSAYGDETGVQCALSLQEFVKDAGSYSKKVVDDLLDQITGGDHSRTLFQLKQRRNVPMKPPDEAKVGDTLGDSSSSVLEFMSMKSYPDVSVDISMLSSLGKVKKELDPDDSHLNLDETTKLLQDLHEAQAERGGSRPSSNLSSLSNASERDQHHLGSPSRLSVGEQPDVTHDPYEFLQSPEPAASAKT
Method in brief: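 HiBiT-tagged BRD9 knock-in HEK293 (LgBiT) cells exposed to compounds for 6 h at 37 °C, 5% CO2. Residual BRD9 measured by HiBiT lytic luminescence. % BRD9 remaining normalised to DMSO-treated cells (high) and no-cell wells (low).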

[2] = target: T1, BRD9; assay: Degradation of BRD9 (IF), immunofluorescence in MV4-11 cells, 24 hours (Assay Protocol 2); format: cell-based; set-up: A suspension of MV4-11 cells (ATCC CRL-9591) was prepared; host or cells: MV4-11
Method in brief: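 MV4-11 cells treated with compound 24 h at 37° C., then fixed, permeabilised and immunostained for BRD9 (anti-BRD9 E4Q3F, Alexa 647 secondary, Hoechst counterstain). High-content imaging quantified nuclear BRD9 signal; % BRD9 remaining normalised to DMSO and 100 nM CFT-8634 controls.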

[3] = MV4-11, Table 4, BRD9 degradation, determined according to Assay Protocol 2, read-out: Dmax^2
[4] = Table 4, BRD9 degradation, determined according to Assay Protocol 2, read-out: DC50^2
[5] = HEK293, Table 2, Assay Protocol 1
[6] = Table 2, Assay Protocol 1, 6 h of treatment, read-out: Assay 1 DC50
[7] = MV4-11, 24 h, Table 2, BRD9 degradation (IF), Assay Protocol 2, MV4-11 cells, read-out: Assay 2 DCmax
[8] = Table 2, BRD9 degradation (IF), Assay Protocol 2, MV4-11 cells, read-out: Assay 2 DC50

Dmax ([1]; HEK293, Table 4, determined according to Assay Protocol 1, read-out: Dmax^1) [%]	Dmax [2, 3] [%]	DC50 [2, 4] [nM]	DC50 ([1]; Table 4, determined according to Assay Protocol 1, read-out: DC50^1) [nM]	Dmax at 1 µM [1, 5] [%]	DC50 [1, 6] [nM]	Dmax [2, 7] [%]	DC50 [2, 8] [nM]	SMILES	DC50 ([1]; read-out: Assay 1 DC50, Table 2, Assay Protocol 1, 6 h of treatment) [nM]	Dmax ([2]; 24 h, Table 2, BRD9 degradation (IF), Assay Protocol 2, MV4-11 cells, read-out: Assay 2 DCmax) [%]
				40 to 70	1.25 to 10	40 to 70		COc1cc(-c2cn(C)c(=O)c3cnccc23)cc(OC)c1CN1CCC(Oc2cccc3c2CCN(C(=O)/C(C#N)=C/C(C)(C)C)C3C)CC1 (mixture of isomers) [Compound A28, (E/Z)-2-(5-((1-(2,6-dimethoxy-4-(2-methyl-1-oxo-1,2-dihydro-2,7-naphthyridin-4-yl)benzyl)piperidin-4-yl)oxy)-1-methyl-1,2,3,4-tetrahydroisoquinoline-2-carbonyl)-4,4-dimethylpent-2-enenitrile]		
				70 to 75	1.25 to 10	40 to 70	1.25 to 10	COc1cc(-c2cn(C)c(=O)c3cnccc23)cc(OC)c1CN1CCCN(Cc2cccc3c2CCN(C(=O)/C(C#N)=C/C(C)(C)C)C3C)CC1 (mixture of isomers) [Compound A31, (E/Z)-2-(5-((4-(2,6-dimethoxy-4-(2-methyl-1-oxo-1,2-dihydro-2,7-naphthyridin-4-yl)benzyl)-1,4-diazepan-1-yl)methyl)-1-methyl-1,2,3,4-tetrahydroisoquinoline-2-carbonyl)-4,4-dimethylpent-2-enenitrile]		
				40 to 70	10 to 25	40 to 70	< 1.25	COc1cc(-c2cn(C)c(=O)c3cnccc23)cc(OC)c1CN(C)CCN(C)Cc1cccc2c1CCN(C(=O)/C(C#N)=C/C(C)(C)C)C2C (mixture of isomers) [Compound A32, (E/Z)-2-(5-(((2-((2,6-dimethoxy-4-(2-methyl-1-oxo-1,2-dihydro-2,7-naphthyridin-4-yl)benzyl)(methyl)amino)ethyl)(methyl)amino)methyl)-1-methyl-1,2,3,4-tetrahydroisoquinoline-2-carbonyl)-4,4-dimethylpent-2-enenitrile]		
				40 to 70	10 to 25	40 to 70	< 1.25	COc1cc(-c2cn(C)c(=O)c3cnccc23)cc(OC)c1CN1CCN(Cc2cccc3c2CCN(C(=O)/C(C#N)=C/c2ncccc2F)C3C)CC1 (mixture of isomers) [Compound A42, (E/Z)-2-[5-[[4-[[2,6-dimethoxy-4-(2-methyl-1-oxo-2,7-naphthyridin-4-yl)phenyl]methyl]piperazin-1-yl]methyl]-1-methyl-3,4-dihydro-1H-isoquinoline-2-carbonyl]-3-(3-fluoro-2-pyridyl)prop-2-enenitrile]		
				70 to 75	1.25 to 10	40 to 70	< 1.25	COc1cc(-c2cn(C)c(=O)c(C)c2C)cc(OC)c1CN1CCN(Cc2cccc3c2CCN(C(=O)/C(C#N)=C/C(C)C)C3C)CC1 (mixture of isomers) [Compound A43]		

More lines, now with the values behind:

SMILES	Dmax ([1]; HEK293, Table 4, determined according to Assay Protocol 1, read-out: Dmax^1) [%]	Dmax [2, 3] [%]	DC50 [2, 4] [nM]	DC50 ([1]; Table 4, determined according to Assay Protocol 1, read-out: DC50^1) [nM]	Dmax at 1 µM [1, 5] [%]	DC50 [1, 6] [nM]	Dmax [2, 7] [%]	DC50 [2, 8] [nM]	DC50 ([1]; read-out: Assay 1 DC50, Table 2, Assay Protocol 1, 6 h of treatment) [nM]	Dmax ([2]; 24 h, Table 2, BRD9 degradation (IF), Assay Protocol 2, MV4-11 cells, read-out: Assay 2 DCmax) [%]
COc1cc(-c2cn(C)c(=O)c(C)c2C)cc(OC)c1C(=O)N1CC2CC1CN2C(=O)/C(C#N)=C/C(C)(C)C (mixture of isomers) [BRD9t, (E/Z)-2-(5-(2,6-dimethoxy-4-(1,4,5-trimethyl-6-oxo-1,6-dihydropyridin-3-yl)benzoyl)-2,6-diazabicyclo[2.2.1]heptane-2-carbonyl)-4,4-dimethylpent-2-enenitrile]	> 70	> 70	> 200							
COc1cc(-c2cn(C)c(=O)c(C)c2C)cc(OC)c1CN1CC2CC1CN2C(=O)/C(C#N)=C/c1cccc(C(F)(F)F)n1 (mixture of isomers) [BRD9x, (E/Z)-2-(5-(2,6-dimethoxy-4-(1,4,5-trimethyl-6-oxo-1,6-dihydropyridin-3-yl)benzyl)-2,5-diazabicyclo[2.2.1]heptane-2-carbonyl)-3-(6-(trifluoromethyl)pyridin-2-yl)acrylonitrile]		> 70	< 25	< 25						
COc1cc(-c2cn(C)c(=O)c3cnccc23)cc(OC)c1CN1CCN(Cc2cccc3c2CCN(C(=O)/C(C#N)=C/c2nccs2)C3C)CC1 (mixture of isomers) [Compound A2, (E/Z)-2-(5-((4-(2,6-dimethoxy-4-(2-methyl-1-oxo-1,2-dihydro-2,7-naphthyridin-4-yl)benzyl)piperazin-1-yl)methyl)-1-methyl-1,2,3,4-tetrahydroisoquinoline-2-carbonyl)-3-(thiazol-2-yl)acrylonitrile]					40 to 70	< 1.25	40 to 70	< 1.25		
COc1cc(-c2cn(C)c(=O)c3cnccc23)cc(OC)c1CN1CCN(Cc2cccc3c2CCN(C(=O)/C(C#N)=C/C(C)(C)C)C3C)CC1 (mixture of isomers) [Compound A3]					40 to 70	1.25 to 10	40 to 70	1.25 to 10		
COc1cc(-c2cn(C)c(=O)c(C)c2C)cc(OC)c1CN1CCN(Cc2cccc3c2CCN(C(=O)/C(C#N)=C/C(C)(C)C)C3C)CC1 (mixture of isomers) [Compound A7, (E/Z)-2-(5-((4-(2,6-dimethoxy-4-(1,4,5-trimethyl-6-oxo-1,6-dihydropyridin-3-yl)benzyl)piperazin-1-yl)methyl)-1-methyl-1,2,3,4-tetrahydroisoquinoline-2-carbonyl)-4,4-dimethylpent-2-enenitrile]					40 to 70	1.25 to 10	40 to 70	10 to 25		
COc1cc(-c2cn(C)c(=O)c3cnccc23)cc(OC)c1CN1CCN(Cc2cccc3c2CCN(C(=O)/C(C#N)=C\C2(F)CC2)C3C)CC1 (mixture of isomers) [Compound A22, (E/Z)-2-(5-((4-(2,6-dimethoxy-4-(2-methyl-1-oxo-1,2-dihydro-2,7-naphthyridin-4-yl)benzyl)piperazin-1-yl)methyl)-1-methyl-1,2,3,4-tetrahydroisoquinoline-2-carbonyl)-3-(1-fluorocyclopropyl)acrylonitrile]					> 75	1.25 to 10	> 75	< 1.25		
COc1cc(-c2cn(C)c(=O)c3cnccc23)cc(OC)c1CN1CCN(Cc2cccc3c2CCN(C(=O)/C(C#N)=C/C2(C)CC2)C3C)CC1 (mixture of isomers) [Compound A26, (E/Z)-2-(5-((4-(2,6-dimethoxy-4-(2-methyl-1-oxo-1,2-dihydro-2,7-naphthyridin-4-yl)benzyl)piperazin-1-yl)methyl)-1-methyl-1,2,3,4-tetrahydroisoquinoline-2-carbonyl)-3-(1-methylcyclopropyl)acrylonitrile]					40 to 70	1.25 to 10	40 to 70	25 to 300		
COc1cc(-c2cn(C)c(=O)c3cnccc23)cc(OC)c1CN1CCN(Cc2cccc3c2CCN(C(=O)/C(C#N)=C/C2(C)COC2)C3C)CC1 (mixture of isomers) [Compound A27, (E/Z)-2-(5-((4-(2,6-dimethoxy-4-(2-methyl-1-oxo-1,2-dihydro-2,7-naphthyridin-4-yl)benzyl)piperazin-1-yl)methyl)-1-methyl-1,2,3,4-tetrahydroisoquinoline-2-carbonyl)-3-(3-methyloxetan-3-yl)acrylonitrile]					40 to 70	1.25 to 10	40 to 70	1.25 to 10		
COc1cc(-c2cn(C)c(=O)c3cnccc23)cc(OC)c1CN1CC2CC(C1)N2Cc1cccc2c1CCN(C(=O)/C(C#N)=C/C(C)(C)C)C2C (mixture of isomers) [Compound A41, (E/Z)-2-(5-((3-(2,6-dimethoxy-4-(2-methyl-1-oxo-1,2-dihydro-2,7-naphthyridin-4-yl)benzyl)-3,6-diazabicyclo[3.1.1]heptan-6-yl)methyl)-1-methyl-1,2,3,4-tetrahydroisoquinoline-2-carbonyl)-4,4-dimethylpent-2-enenitrile]					70 to 75			1.25 to 10	1.25 to 10	70 to 75
